Read-outs that look alike come from different tables or passages of the source.
How the values were obtained:
HCV replicon 1A Y93H = test: Cell-based HCV replicon assay, 1A Y93H
Method: (§1) To measure cell-based anti-HCV activity of selected compounds of the present invention two complimentary assays were employed. In the first assay, replicon cells were seeded at 2000 cells/well in 384-well flat bottom tissue culture treated clear bottom plate (Corning 3707) in the presence of the test compound. Various concentrations of test compound, typically in 10 serial dilutions, were added to the assay mixture, with the starting concentration ranging from 333.3 nM to 1.667 nM. The final concentration of DMSO was 0.5%. Fetal bovine serum was 5%, in the assay media. Cells were harvested on day 3 by removing media and washing the cells with a suitable wash buffer. The cells were lysed with the addition of 1× Qiagen lysis buffer (Cat #1062731). The replicon RNA level was measured using real time PCR (TaqMan® EZ RT-PCR, Applied Biosystems 403028) with the following primers and probes: […]
(§2) Cyclophilin RNA was used as endogenous control and was amplified in the same reaction as NS5B (multiplex PCR). The real-time RT-PCR reactions were run on ABI PRISM 7900HT Sequence Detection System using the following program: 50° C. for 2 minutes, 60° C. for 30 minutes, 95° C. for 5 minutes, 40 cycles of 94° C. for 20 sec, 55° C. for 1 minute.
(§3) The amount of HCV replicon RNA per cell is quantified using a linear regression curve for a known nanogram (ng) amount of HCV replicon total RNA. This is established by plotting the Cycle Threshold values (Ct) from the Neo probe and primer set versus the log (ng) for each HCV replicon total RNA standard. The amount of HCV RNA for each replicon sample is calculated by taking the sample's Ct value, minus the line intercept, divided by the slope of the line. Similarly, the amount of Cyclophilin mRNA per cell is also quantified using a linear regression curve for a known nanogram (ng) amount of HCV replicon total RNA. Again, this is established by plotting the Cycle Threshold values (Ct) from the Cyclophilin probe and primer set versus the log (ng) for each HCV replicon total RNA standard.
(§4) In the alternate assay, 1000 cells were seeded per well in a 384-well collagen coated black plate from Greiner bio-one (Cat #781946) in 5% FBS. Inhibitors of this invention were added at 24 hours post-seeding, and the plates were incubated for 3 days. Cells were subsequently lysed with Qiagen lysis buffer (Cat #1062731) to extract the RNA. HCV replicon RNA level was measured by real-time PCR using the RNA-to-CT kit from Applied Biosystem (Cat #4392656) and genotype-specific primers and probes. The amplicon was located within NS5B. The sequence of the PCR primers were as follows: 5B.2F, ATGGACAGGCGCCCTGA (SEQ. ID NO. 7); 5B.2R, […] (SEQ. ID NO. 8); the probe sequence was FAM-labeled CACGCCATGCGCTGCGG (SEQ. ID NO. 9). To detect genotype 1A the primer 1A F, TGCGGAACCGGTGAGTACA (SEQ ID NO:10) and 1A R, […] (SEQ ID NO: 11) were used; the probe sequence was FAM-[…] (SEQ ID NO:12).
(§5) The real-time RT-PCR reactions were run on ABI PRISM 7900HT or Viia7 Sequence Detection System using the following program: 48° C. for 30 minutes, 95° C. for 10 minutes, 40 cycles of 95° C. for 15 sec, 60° C. for 1 minute. The 50% effective concentration (EC50) was the drug concentration necessary to achieve an increase in the cycle threshold (CT) of 1 over the projected baseline CT. The EC90 was the drug concentration necessary to achieve an increase in CT of 3.2 over the projected baseline CT.

HCV replicon 3A = test: Cell-based HCV replicon assay, 3A; conditions: replicon cells, 3 days, replicon RNA by real-time PCR
Method: as §1, §2, §3, §4, §5

HCV replicon 2B = test: Cell-based HCV replicon assay, 2B; conditions: replicon cells, 3 days, replicon RNA by real-time PCR
Method: as §1, §2, §3, §4, §5

HCV replicon genotype 1A = test: Cell-based HCV replicon assay, 1A; conditions: replicon cells, 3 days, replicon RNA by real-time PCR
Method: as §1, §2, §3, §4, §5

HCV replicon 1B = test: Cell-based HCV replicon assay, 1B; conditions: replicon cells, 3 days, replicon RNA by real-time PCR
Method: as §1, §2, §3, §4, §5

[1] = Hepatitis C virus, 72 h, read-out: 1A Y93H IC50 (nM), replicon cells, 3 days, replicon RNA by real-time PCR
[2] = read-out: 1A Y93H IC50, replicon cells, 3 days, replicon RNA by real-time PCR

| SMILES | IC50 (HCV replicon 1A Y93H; [1]) [nM] | IC50 (HCV replicon genotype 1A) [nM] | IC50 (HCV replicon 1A Y93H; [2]) [nM] | other results |
| --- | --- | --- | --- | --- |
| COC(=O)N[C@H](C(=O)N1CCC[C@H]1c1ncc(-c2ccc3c(c2)OC(c2cccc(OC)c2)C2=C3COc3cc(-c4cnc([C@@H]5CCCN5C(=O)[C@@H](NC(=O)OC)C(C)C)[nH]4)ccc32)[nH]1)C(C)C (single isomer, unassigned) [Compound 10] | 2.94 | 0.0035 |  | IC50 (HCV replicon 3A): 0.233 nM; IC50 (HCV replicon 2B; Hepatitis C virus, 72 h): 2.72 nM |
| COC(=O)N[C@H](C(=O)N1CCC[C@H]1c1ncc(-c2ccc3c(c2)OC(C)C2=C3COc3cc(-c4cnc([C@@H]5CCCN5C(=O)[C@@H](NC(=O)OC)C(C)C)[nH]4)ccc32)[nH]1)C(C)C (single isomer, unassigned) [Compound 15] |  | 0.0229 | 127 | IC50 (HCV replicon 2B): 15.3 nM |
| COC(=O)N[C@H](C(=O)N1CCC[C@H]1c1ncc(-c2ccc3c(c2)OC(C2CC2)C2=C3COc3cc(-c4cnc([C@@H]5CCCN5C(=O)[C@@H](NC(=O)OC)C(C)C)[nH]4)ccc32)[nH]1)C(C)C (single isomer, unassigned) [Compound 17] |  | 0.0115 | 57.9 |  |
| COC(=O)N[C@H](C(=O)N1CCC[C@H]1c1ncc(-c2ccc3c(c2)OC(C)C2=C3COc3cc(-c4cnc([C@@H]5CCCN5C(=O)[C@@H](NC(=O)OC)C(C)C)[nH]4)ccc32)[nH]1)C(C)C (single isomer, unassigned) [Compound 14] |  | 0.0122 | 31.8 | IC50 (HCV replicon 2B): 24.5 nM |
| COC(=O)N[C@H](C(=O)N1C[C@H](F)C[C@H]1c1ncc(-c2ccc3c(c2)OC(C2CC2)C2=C3COc3cc(-c4cnc([C@@H]5C[C@@H](F)CN5C(=O)[C@@H](NC(=O)OC)C(C)C)[nH]4)ccc32)[nH]1)C(C)C (single isomer, unassigned) [Compound 21] |  | 0.0156 | 2.17 |  |
| COC(=O)N[C@H](C(=O)N1C[C@H](F)C[C@H]1c1ncc(-c2ccc3c(c2)OC(C2CC2)C2=C3COc3cc(-c4cnc([C@@H]5C[C@@H](F)CN5C(=O)[C@@H](NC(=O)OC)C(C)C)[nH]4)ccc32)[nH]1)C(C)C (single isomer, unassigned) [Compound 19] | 2.31 | 0.0192 |  |  |
| COC(=O)N[C@H](C(=O)N1C[C@H](F)C[C@H]1c1ncc(-c2ccc3c(c2)OC(C2CC2)C2=C3COc3cc(-c4cnc([C@@H]5C[C@@H](F)CN5C(=O)[C@@H](NC(=O)OC)C(C)C)[nH]4)ccc32)[nH]1)C(C)C (single isomer, unassigned) [Compound 20] |  | 0.0866 | 1.97 |  |
| COC(=O)N[C@H](C(=O)N1CCC[C@H]1c1ncc(-c2ccc3c(c2)OCC2=C3COc3cc(-c4cnc([C@@H]5C[C@H]6C[C@H]6N5C(=O)[C@@H](NC(=O)OC)C(C)C)[nH]4)ccc32)[nH]1)C(C)C [Compound 22] | 2.01 |  |  | IC50 (HCV replicon 3A; Hepatitis C virus, 72 h): 2.02 nM; IC50 (HCV replicon 2B; Hepatitis C virus, 72 h): 16 nM; IC50 (HCV replicon genotype 1A; Hepatitis C virus, 72 h): 0.0023 nM |
| COC(=O)N[C@H](C(=O)N1CCC[C@H]1c1ncc(-c2ccc3c(c2)OC(c2cccc(OC)c2)C2=C3COc3cc(-c4cnc([C@@H]5CCCN5C(=O)[C@@H](NC(=O)OC)C(C)C)[nH]4)ccc32)[nH]1)C(C)C (single isomer, unassigned) [Compound 11] |  | 0.01 |  | IC50 (HCV replicon 1B; Hepatitis C virus, 72 h): 0.006 nM |
| COC(=O)N[C@H](C(=O)N1CCC[C@H]1c1ncc(-c2ccc3c(c2)OC(c2cccc(OC)c2)C2=C3COc3cc(-c4cnc([C@@H]5CCCN5C(=O)[C@@H](NC(=O)OC)C(C)C)[nH]4)ccc32)[nH]1)C(C)C (single isomer, unassigned) [Compound 12] |  | 0.0251 | 2.44 | IC50 (HCV replicon 3A): 1.82 nM |
| COC(=O)N[C@H](C(=O)N1CCC[C@H]1c1ncc(-c2ccc3c(c2)OC(c2ccccc2)C2=C3COc3cc(-c4cnc([C@@H]5CCCN5C(=O)[C@@H](NC(=O)OC)C(C)C)[nH]4)ccc32)[nH]1)C(C)C (single isomer, unassigned) [Compound 9] |  | 0.0099 | 3.94 | IC50 (HCV replicon 3A): 0.172 nM; IC50 (HCV replicon 2B): 1.9 nM; IC50 (HCV replicon 1B): 0.0073 nM |
| COC(=O)N[C@H](C(=O)N1CCC[C@H]1c1ncc(-c2ccc3c(c2)OC(C2CC2)C2=C3COc3cc(-c4cnc([C@@H]5CCCN5C(=O)[C@@H](NC(=O)OC)C(C)C)[nH]4)ccc32)[nH]1)C(C)C (single isomer, unassigned) [Compound 16] |  |  | 6.31 | IC50 (HCV replicon 3A; Hepatitis C virus, 72 h): 3.74 nM; IC50 (HCV replicon 2B; Hepatitis C virus, 72 h): 0.621 nM; IC50 (HCV replicon genotype 1A; Hepatitis C virus, 72 h): 0.0118 nM |
| CC(C)(C)OC(=O)N1C[C@H](F)C[C@H]1c1ncc(-c2ccc3c(c2)OCc2c-3c(=O)oc3cc(-c4cnc([C@@H]5C[C@@H](F)CN5C(=O)OC(C)(C)C)[nH]4)ccc23)[nH]1 [Compound 6] | 3080 |  |  | IC50 (HCV replicon genotype 1A; Hepatitis C virus, 72 h): 975 nM |
| COC(=O)N[C@H](C(=O)N1CCC[C@H]1c1ncc(-c2ccc3c(c2)OC(c2ccccc2)C2=C3COc3cc(-c4cnc([C@@H]5CCCN5C(=O)[C@@H](NC(=O)OC)C(C)C)[nH]4)ccc32)[nH]1)C(C)C (single isomer, unassigned) [Compound 8] |  | 0.0337 | 20.4 | IC50 (HCV replicon 3A): 0.969 nM; IC50 (HCV replicon 2B): 6.65 nM; IC50 (HCV replicon 1B): 0.021 nM |
| COC(=O)N[C@H](C(=O)N1CCC[C@H]1c1ncc(-c2ccc3c(c2)OC(C2CC2)C2=C3COc3cc(-c4cnc([C@@H]5CCCN5C(=O)[C@@H](NC(=O)OC)C(C)C)[nH]4)ccc32)[nH]1)C(C)C (single isomer, unassigned) [Compound 18] |  | 0.0081 | 14.3 |  |
| COC(=O)N[C@H](C(=O)N1C[C@H](F)C[C@H]1c1ncc(-c2ccc3c(c2)OCc2c-3c(=O)oc3cc(-c4cnc([C@@H]5C[C@@H](F)CN5C(=O)[C@@H](NC(=O)OC)C(C)C)[nH]4)ccc23)[nH]1)C(C)C [Compound 5] | 0.337 |  |  | IC50 (HCV replicon 3A; Hepatitis C virus, 72 h): 1 nM; IC50 (HCV replicon 2B; Hepatitis C virus, 72 h): 100 nM; IC50 (HCV replicon genotype 1A; Hepatitis C virus, 72 h): 0.0153 nM; IC50 (HCV replicon 1B; Hepatitis C virus, 72 h): 0.0044 nM |
| COC(=O)N[C@H](C(=O)N1CCC[C@H]1c1ncc(-c2ccc3c(c2)OC(c2ccccc2)C2=C3COc3cc(-c4cnc([C@@H]5CCCN5C(=O)[C@@H](NC(=O)OC)C(C)C)[nH]4)ccc32)[nH]1)C(C)C (some centres unmarked) [Compound 7] | 4.29 |  |  | IC50 (HCV replicon 3A; Hepatitis C virus, 72 h): 0.062 nM; IC50 (HCV replicon 2B; Hepatitis C virus, 72 h): 1 nM; IC50 (HCV replicon genotype 1A; Hepatitis C virus, 72 h): 0.0076 nM; IC50 (HCV replicon 1B; Hepatitis C virus, 72 h): 0.002 nM |
| COC(=O)N[C@H](C(=O)N1CCC[C@H]1c1ncc(-c2ccc3c(c2)OC(C)C2=C3COc3cc(-c4cnc([C@@H]5CCCN5C(=O)[C@@H](NC(=O)OC)C(C)C)[nH]4)ccc32)[nH]1)C(C)C (single isomer, unassigned) [Compound 13] |  | 0.0344 | 23.8 | IC50 (HCV replicon 3A; Hepatitis C virus, 72 h): 1 nM; IC50 (HCV replicon 2B): 12 nM |

From patent US9828365B2, “Fused tetracyclic heterocyclic compounds and methods of use thereof for the treatment of viral diseases” (MERCK SHARP & DOHME CORP., priority 2013, dated 2017)
